{"source": "ChEMBL document CHEMBL3390836", "about": "“Mannich- and LedererManasse-based analogues of the natural product S-(+)-curcuphenol as cancer proliferation and migration inhibitors” (Medchemcomm, 2012)", "assay_type_in_all_cases": "functional", "key": {"[1]": {"test": "Cytotoxicity against human HCT116 cells assessed as cell growth at 10^-4 M after 48 hrs by SRB assay relative to control", "conditions": "HCT-116, 48 h, read-out: Activity"}, "[2]": {"test": "Cytotoxicity against human HCT15 cells assessed as cell growth at 10^-4 M after 48 hrs by SRB assay relative to control", "conditions": "HCT-15, 48 h, read-out: Activity"}, "[3]": {"tested_on": "HT-29", "test": "Cytotoxicity against human HT-29 cells assessed as cell growth at 10^-4 M after 48 hrs by SRB assay relative to control", "conditions": "HT-29, 48 h, read-out: Activity"}, "[4]": {"tested_on": "SNB-75", "test": "Cytotoxicity against human SNB75 cells after 48 hrs by SRB assay", "conditions": "SNB-75, 48 h"}, "[5]": {"tested_on": "SK-MEL-2", "test": "Cytotoxicity against human SK-MEL-2 cells after 48 hrs by SRB assay", "conditions": "SK-MEL-2, 48 h"}, "[6]": {"tested_on": "SK-MEL-5", "test": "Cytotoxicity against human SK-MEL-5 cells after 48 hrs by SRB assay", "conditions": "SK-MEL-5, 48 h"}, "[7]": {"test": "Cytotoxicity against human UACC62 cells after 48 hrs by SRB assay", "conditions": "UACC-62, 48 h"}, "[8]": {"tested_on": "ACHN", "test": "Cytotoxicity against human ACHN cells after 48 hrs by SRB assay"}, "[9]": {"tested_on": "RXF 393", "test": "Cytotoxicity against human RXF393 cells after 48 hrs by SRB assay", "conditions": "RXF 393, 48 h"}, "[10]": {"tested_on": "SF-539", "test": "Cytotoxicity against human SF539 cells assessed as cell growth at 10^-4 M after 48 hrs by SRB assay relative to control", "conditions": "SF-539, 48 h, read-out: Activity"}, "[11]": {"tested_on": "HL-60(TB)", "test": "Cytotoxicity against human HL-60(TB) cells assessed as cell growth at 10^-8 M after 48 hrs by SRB assay relative to control", "conditions": "HL-60, 48 h, read-out: Activity"}, "[12]": {"tested_on": "HOP-62", "test": "Cytotoxicity against human HOP62 cells assessed as cell growth at 10^-8 M after 48 hrs by SRB assay relative to control", "conditions": "HOP-62, 48 h, read-out: Activity"}, "[13]": {"tested_on": "NCI-H226", "test": "Cytotoxicity against human NCI-H226 cells assessed as cell growth at 10^-8 M after 48 hrs by SRB assay relative to control", "conditions": "NCI-H226, 48 h, read-out: Activity"}, "[14]": {"test": "Cytotoxicity against human HCT15 cells assessed as cell growth at 10^-8 M after 48 hrs by SRB assay relative to control", "conditions": "HCT-15, 48 h, read-out: Activity"}, "[15]": {"tested_on": "SF-268", "test": "Cytotoxicity against human SF268 cells assessed as cell growth at 10^-8 M after 48 hrs by SRB assay relative to control", "conditions": "SF-268, 48 h, read-out: Activity"}, "[16]": {"tested_on": "SNB-19", "test": "Cytotoxicity against human SNB19 cells assessed as cell growth at 10^-8 M after 48 hrs by SRB assay relative to control", "conditions": "SNB-19, 48 h, read-out: Activity"}, "[17]": {"tested_on": "SK-MEL-5", "test": "Cytotoxicity against human SK-MEL-5 cells assessed as cell growth at 10^-4 M after 48 hrs by SRB assay relative to control", "conditions": "SK-MEL-5, 48 h, read-out: Activity"}, "[18]": {"test": "Cytotoxicity against human OVCAR5 cells assessed as cell growth at 10^-4 M after 48 hrs by SRB assay relative to control", "conditions": "OVCAR-5, 48 h, read-out: Activity"}, "[19]": {"tested_on": "A498", "test": "Cytotoxicity against human A498 cells assessed as cell growth at 10^-4 M after 48 hrs by SRB assay relative to control", "conditions": "A498, 48 h, read-out: Activity"}, "[20]": {"test": "Cytotoxicity against human OVCAR8 cells assessed as cell growth at 10^-8 M after 48 hrs by SRB assay relative to control", "conditions": "OVCAR-8, 48 h, read-out: Activity"}, "[21]": {"test": "Cytotoxicity against human NCI-ADR-RES cells assessed as cell growth at 10^-8 M after 48 hrs by SRB assay relative to control", "conditions": "read-out: Activity"}, "[22]": {"tested_on": "A498", "test": "Cytotoxicity against human A498 cells assessed as cell growth at 10^-8 M after 48 hrs by SRB assay relative to control", "conditions": "A498, 48 h, read-out: Activity"}, "[23]": {"tested_on": "CAKI-1", "test": "Cytotoxicity against human Caki1 cells assessed as cell growth at 10^-8 M after 48 hrs by SRB assay relative to control", "conditions": "CAKI-1, 48 h, read-out: Activity"}, "[24]": {"test": "Cytotoxicity against human PC3 cells assessed as cell growth at 10^-8 M after 48 hrs by SRB assay relative to control", "conditions": "PC-3, 48 h, read-out: Activity"}, "[25]": {"tested_on": "HL-60(TB)", "test": "Cytotoxicity against human HL-60(TB) cells assessed as cell growth at 10^-7 M after 48 hrs by SRB assay relative to control", "conditions": "HL-60, 48 h, read-out: Activity"}, "[26]": {"test": "Cytotoxicity against human EKVX cells assessed as cell growth at 10^-7 M after 48 hrs by SRB assay relative to control", "conditions": "read-out: Activity"}, "[27]": {"tested_on": "SF-268", "test": "Cytotoxicity against human SF268 cells assessed as cell growth at 10^-7 M after 48 hrs by SRB assay relative to control", "conditions": "SF-268, 48 h, read-out: Activity"}, "[28]": {"tested_on": "SF-539", "test": "Cytotoxicity against human SF539 cells assessed as cell growth at 10^-7 M after 48 hrs by SRB assay relative to control", "conditions": "SF-539, 48 h, read-out: Activity"}, "[29]": {"tested_on": "HCC 2998", "test": "Cytotoxicity against human HCC2998 cells after 48 hrs by SRB assay", "conditions": "HCC 2998, 48 h"}, "[30]": {"tested_on": "SW-620", "test": "Cytotoxicity against human SW620 cells after 48 hrs by SRB assay", "conditions": "SW-620, 48 h"}, "[31]": {"tested_on": "SK-MEL-5", "test": "Cytotoxicity against human SK-MEL-5 cells assessed as cell growth at 10^-7 M after 48 hrs by SRB assay relative to control", "conditions": "SK-MEL-5, 48 h, read-out: Activity"}, "[32]": {"test": "Cytotoxicity against human OVCAR8 cells assessed as cell growth at 10^-7 M after 48 hrs by SRB assay relative to control", "conditions": "OVCAR-8, 48 h, read-out: Activity"}, "[33]": {"tested_on": "NCI-H23", "test": "Cytotoxicity against human NCI-H23 cells assessed as cell growth at 10^-6 M after 48 hrs by SRB assay relative to control", "conditions": "NCI-H23, 48 h, read-out: Activity"}, "[34]": {"tested_on": "COLO 205", "test": "Cytotoxicity against human COLO205 cells assessed as cell growth at 10^-6 M after 48 hrs by SRB assay relative to control", "conditions": "COLO 205, 48 h, read-out: Activity"}, "[35]": {"test": "Cytotoxicity against human HCT15 cells assessed as cell growth at 10^-6 M after 48 hrs by SRB assay relative to control", "conditions": "HCT-15, 48 h, read-out: Activity"}, "[36]": {"tested_on": "TK-10", "test": "Cytotoxicity against human TK10 cells assessed as cell growth at 10^-6 M after 48 hrs by SRB assay relative to control", "conditions": "TK-10, 48 h, read-out: Activity"}, "[37]": {"conditions": "read-out: LC50 (the source's name)"}}, "data": [{"smiles": "CC(C)=CCC[C@H](C)c1ccc(C)c2c1OCN(CC1CCNCC1)C2", "values": [{"measurement": "growth at 100 µM", "setting": "[1]", "value": -80, "unit": "%"}, {"measurement": "growth at 100 µM", "setting": "[2]", "value": -83, "unit": "%"}, {"measurement": "growth at 100 µM", "setting": "[3]", "value": -66, "unit": "%"}, {"measurement": "GI50", "setting": "[4]", "value": 11.9, "unit": "µM"}, {"measurement": "LC50", "setting": "[4]", "value": 49.6, "unit": "µM"}, {"measurement": "TGI", "setting": "[4]", "value": 24.3, "unit": "µM"}, {"measurement": "GI50", "setting": "[5]", "value": 18.2, "unit": "µM"}, {"measurement": "LC50", "setting": "[5]", "value": 69.2, "unit": "µM"}, {"measurement": "TGI", "setting": "[5]", "value": 35.5, "unit": "µM"}, {"measurement": "GI50", "setting": "[6]", "value": 4.97, "unit": "µM"}, {"measurement": "LC50", "setting": "[6]", "value": 49.8, "unit": "µM"}, {"measurement": "TGI", "setting": "[6]", "value": 18.3, "unit": "µM"}, {"measurement": "GI50", "setting": "[7]", "value": 15.5, "unit": "µM"}, {"measurement": "LC50 (concentration killing 50% of cells)", "setting": "[7]", "value": 57.6, "unit": "µM"}, {"measurement": "TGI", "setting": "[7]", "value": 29.9, "unit": "µM"}, {"measurement": "GI50", "setting": "[8]", "value": 15.3, "unit": "µM"}, {"measurement": "LC50 (concentration killing 50% of cells)", "setting": "[8]", "value": 58.9, "unit": "µM"}, {"measurement": "TGI", "setting": "[8]", "value": 30, "unit": "µM"}, {"measurement": "GI50", "setting": "[9]", "value": 9.2, "unit": "µM"}, {"measurement": "LC50 (concentration killing 50% of cells)", "setting": "[9]", "value": 88.3, "unit": "µM"}, {"measurement": "TGI", "setting": "[9]", "value": 21.7, "unit": "µM"}, {"measurement": "growth at 100 µM", "setting": "[10]", "value": -93, "unit": "%"}, {"measurement": "growth at 0.01 µM", "setting": "[11]", "value": 96, "unit": "%"}, {"measurement": "growth at 0.01 µM", "setting": "[12]", "value": 104, "unit": "%"}, {"measurement": "growth at 0.01 µM", "setting": "[13]", "value": 86, "unit": "%"}, {"measurement": "growth at 0.01 µM", "setting": "[14]", "value": 93, "unit": "%"}, {"measurement": "growth at 0.01 µM", "setting": "[15]", "value": 102, "unit": "%"}, {"measurement": "growth at 0.01 µM", "setting": "[16]", "value": 95, "unit": "%"}, {"measurement": "growth at 100 µM", "setting": "[17]", "value": -85, "unit": "%"}, {"measurement": "growth at 100 µM", "setting": "[18]", "value": -90, "unit": "%"}, {"measurement": "growth at 100 µM", "setting": "[19]", "value": -90, "unit": "%"}, {"measurement": "growth at 0.01 µM", "setting": "[20]", "value": 106, "unit": "%"}, {"measurement": "growth at 0.01 µM", "setting": "[21]", "value": 104, "unit": "%"}, {"measurement": "growth at 0.01 µM", "setting": "[22]", "value": 78, "unit": "%"}, {"measurement": "growth at 0.01 µM", "setting": "[23]", "value": 101, "unit": "%"}, {"measurement": "growth at 0.01 µM", "setting": "[24]", "value": 102, "unit": "%"}, {"measurement": "growth at 0.1 µM", "setting": "[25]", "value": 91, "unit": "%"}, {"measurement": "growth at 0.1 µM", "setting": "[26]", "value": 103, "unit": "%"}, {"measurement": "growth at 0.1 µM", "setting": "[27]", "value": 99, "unit": "%"}, {"measurement": "growth at 0.1 µM", "setting": "[28]", "value": 94, "unit": "%"}, {"measurement": "GI50", "setting": "[29]", "value": 3.74, "unit": "µM"}, {"measurement": "TGI", "setting": "[29]", "value": 12.3, "unit": "µM"}, {"measurement": "CC50", "setting": "[29]; [37]", "value": 37.5, "unit": "µM"}, {"measurement": "GI50", "setting": "[30]", "value": 9.87, "unit": "µM"}, {"measurement": "TGI", "setting": "[30]", "value": 23.1, "unit": "µM"}, {"measurement": "CC50", "setting": "[30]; [37]", "value": 53.5, "unit": "µM"}, {"measurement": "growth at 0.1 µM", "setting": "[31]", "value": 88, "unit": "%"}, {"measurement": "growth at 0.1 µM", "setting": "[32]", "value": 101, "unit": "%"}, {"measurement": "growth at 1 µM", "setting": "[33]", "value": 105, "unit": "%"}, {"measurement": "growth at 1 µM", "setting": "[34]", "value": 101, "unit": "%"}, {"measurement": "growth at 1 µM", "setting": "[35]", "value": 95, "unit": "%"}, {"measurement": "growth at 1 µM", "setting": "[36]", "value": 118, "unit": "%"}]}]}
